The source of these data is patent publication US11306078B2, “Piperidine CXCR7 receptor modulators” (IDORSIA PHARMACEUTICALS LTD., priority 2016, dated 2022).

For orientation: IC50 means the concentration that inhibits the measured activity by half. Higher therefore signals a need for much substance.

For this assay, the target named is human chemokine receptor CXCR7 (Homo sapiens (Human), UniProt P25106). In words: Tango CXCR7-bla U2OS beta-arrestin recruitment assay (beta-lactamase reporter, FRET), antagonism of CXCL12/SDF1-α.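 Note: compounds preincubated 15 min before CXCL12 addition, then 22 h at 37 °C, FRET emission ratio read with CCF4-AM substrate after 2 h.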 In kind it is cell-based. The note with it: antagonistic effect on CXCR7; Tango CXCR7-bla U2OS cells, CXCL12/SDF1-α at its EC80. For orientation: Activated receptors often draw arrestin, which recruitment assays turn into a signal.
Sequence of human chemokine receptor CXCR7 (P25106 whole entry): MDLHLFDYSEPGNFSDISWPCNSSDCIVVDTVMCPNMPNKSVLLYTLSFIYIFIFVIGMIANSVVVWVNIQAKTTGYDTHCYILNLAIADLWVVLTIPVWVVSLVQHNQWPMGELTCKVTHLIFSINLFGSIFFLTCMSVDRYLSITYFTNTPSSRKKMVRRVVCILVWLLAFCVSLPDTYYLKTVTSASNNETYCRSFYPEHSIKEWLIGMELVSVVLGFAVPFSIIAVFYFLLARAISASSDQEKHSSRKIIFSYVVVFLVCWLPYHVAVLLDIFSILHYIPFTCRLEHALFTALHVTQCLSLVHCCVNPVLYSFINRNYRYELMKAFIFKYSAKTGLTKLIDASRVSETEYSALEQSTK
The compound `O=C(N[C@@H]1CCN(C2CCC2)C[C@H]1C(=O)NCC1(c2ccc(Cl)cc2)CC1)c1cc(-c2ccc(F)cc2F)on1` [Example 4.092] gave an IC50 of 0.126 µM.
The result for `C[C@@H](NC(=O)[C@@H]1CN(CC2CC2)CC[C@H]1NC(=O)c1cc(-c2ccc(F)cc2F)no1)c1cnccn1` (relative stereo) [Example 1.159, (3R*,4R*)-1-Cyclopropylmethyl-4-{[3-(2,4-difluoro-phenyl)-isoxazole-5-carbonyl]-amino}-piperidine-3-carboxylic acid ((R)-1-pyrazin-2-yl-ethyl)-amide] reads 0.818 µM.
As for `CC(C)CN1CC[C@H](NC(=O)c2cc(-c3ccc(F)cc3F)on2)[C@@H](C(=O)NC2(c3ncccn3)CC2)C1` [Example 2.07], the IC50 worked out at 0.011 µM.
`O=C(N[C@H]1CCN(CC2CC2(F)F)C[C@@H]1C(=O)NC1(c2ncccn2)CC1)c1cc(-c2ccc(F)cc2F)on1` (stereo partly shown) [Example 2.084] showed an IC50 of 0.008 µM.
In turn, `CN(C)C(=O)[C@@H]1CN(C2CCCC2)CC[C@H]1NC(=O)c1cc(-c2ccc(F)cc2F)no1` (racemic) [Example 1.103, rac-(3R*,4R*)-1-Cyclopentyl-4-{[3-(2,4-difluoro-phenyl)-isoxazole-5-carbonyl]-amino}-piperidine-3-carboxylic acid dimethylamide] came in with an IC50 of 0.274 µM.
Consider `O=C(N[C@@H]1CCN(C2CCCCC2)C[C@H]1C(=O)NCCF)c1cc(-c2ccc(F)cc2F)on1` (racemic) [Example 1.011, rac-(3R*,4R*)-1-Cyclohexyl-4-{[5-(2,4-difluoro-phenyl)-isoxazole-3-carbonyl]-amino}-piperidine-3-carboxylic acid (2-fluoro-ethyl)-amide], for which half-maximal inhibition (IC50) required 0.282 µM.
`CN(C)C(=O)[C@@H]1CN(C2CCCCC2)CC[C@H]1NC(=O)c1cc(-c2ccc(F)cc2Cl)on1` (racemic) [Example 3.004, rac-(3R*,4R*)-4-{[5-(2-Chloro-4-fluoro-phenyl)-isoxazole-3-carbonyl]-amino}-1-cyclohexyl-piperidine-3-carboxylic acid dimethylamide] displayed an IC50 of 0.338 µM.
For `O=C(N[C@H]1CCN(CC2CC2)C[C@@H]1C(=O)NCCc1ccccc1Cl)c1cc(-c2ccc(F)cc2F)on1` [Example 4.065], the IC50 was 0.014 µM. Against the preceding compound, the IC50 is about 24-fold lower.
The compound `O=C(N[C@@H]1CCN(CC2CC2)C[C@H]1C(=O)NC1(c2ncccn2)CC1)c1cc(-c2ccc(C(F)(F)F)cc2)on1` (racemic) [Example 1.192, rac-(3R*,4R*)-1-Cyclopropylmethyl-4-{[5-(4-trifluoromethyl-phenyl)-isoxazole-3-carbonyl]-amino}-piperidine-3-carboxylic acid (1-pyrimidin-2-yl-cyclopropyl)-amide] came in with an IC50 of 0.389 µM.
In turn, `O=C(N[C@H]1CCN(C2CCCC2)C[C@@H]1C(=O)NC1(c2ncccn2)CC1)c1cc(-c2c(F)cc(F)cc2F)on1` (single isomer, unassigned) [Example 1.176a, (3S,4S)-1-Cyclopentyl-4-{[5-(2,4,6-trifluoro-phenyl)-isoxazole-3-carbonyl]-amino}-piperidine-3-carboxylic acid (1-pyrimidin-2-yl-cyclopropyl)-amide or (3R,4R)-1-Cyclopentyl-4-{[5-(2,4,6-trifluoro-phenyl)-isoxazole-3-carbonyl]-amino}-piperidine-3-carboxylic acid (1-pyrimidin-2-yl-cyclopropyl)-amide] registered an IC50 of 0.005 µM.
The value for `O=C(N[C@H]1CCN(C2CCCCC2)C[C@@H]1C(=O)NC1(c2ccc(F)cn2)CC1)c1cc(-c2ccc(F)cc2F)on1` [Example 4.004] was 0.319 µM; that for `O=C(N[C@H]1CCN(CC2CC2)C[C@@H]1C(=O)NC1(c2cnccn2)CC1)c1cc(-c2ccc(F)cc2F)on1` [Example 1.179, (3S,4S)-1-Cyclopropylmethyl-4-{[5-(2,4-difluoro-phenyl)-isoxazole-3-carbonyl]-amino}-piperidine-3-carboxylic acid (1-pyrazin-2-yl-cyclopropyl)-amide] was 0.05 µM; that for `O=C(N[C@@H]1CCN(CC2CC2)C[C@H]1C(=O)N1CC[C@@H]1c1ncccn1)c1cc(-c2ccc(F)cc2F)on1` [Example 4.079b] was 0.018 µM.
